Here are results for 31 compounds from patent US11065253B2, “Arylquinazolines” (Merck Patent GmbH, priority 2013, dated 2021).

This assay relates to phospho-serine 2056 DNA-PK in HCT116 cells. The assay can be described thus: DNA-PK phosphorylation at serine 2056 (cellular), ELISA in bleomycin-treated HCT116 cells. The following applies: read-out: IC50 pDNA-PK. It counts as cell-based. The method in brief: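 Chemiluminescent ELISA quantified DNA-PK Ser2056 phosphorylation relative to total DNA-PKcs in HCT116 cells. Cells received compounds together with 10 μM bleomycin for 6 h; DMSO served as blank.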

Where [1] appears, read: Homo sapiens, HCT-116, phospho-serine 2056 DNA-PK, bleomycin-treated HCT116 cells, class symbols A-D.
The mark [2] stands for this setting: phospho-serine 2056 DNA-PK, bleomycin-treated HCT116 cells, class symbols A-D.
[3] abbreviates: Homo sapiens, HCT-116, phospho-serine 2056 DNA-PK, bleomycin-treated HCT116 cells.
[4] abbreviates: Homo sapiens, HCT-116, cellular DNA-PK phosphorylation at serine 2056, HCT116 cells.
The mark [5] stands for this setting: Homo sapiens, HCT-116, 6 h, cellular, HCT116 cells, 10 μM bleomycin, six hours.

Each structure is given as a SMILES string. Read-outs that look alike come from different tables or passages of the source.

Regarding `COC(=O)COc1ccc(C(O)c2cc(-c3ncnc4cc(N5CCOCC5)ccc34)c(F)cc2Cl)nn1` (stereo not shown) [Example 114, (6-{[2-Chloro-4-fluoro-5-(7-morpholin-4-yl-quinazolin-4-yl)-phenyl]hydroxy-methyl}pyridazin-3-yl-oxy)acetic acid methyl ester], the IC50 under setting [1] was 10 to 30 µM.

As to `Cc1nc([C@H](O)c2cnc(F)c(-c3ncnc4cc(N5CCOCC5)ncc34)c2)sc1C` [Example 204, (R)-(4,5-Dimethyl-thiazol-2-yl)-[6-fluoro-5-(7-morpholin-4-yl-pyrido[4,3-d}-pyrimidin-4-yl)-pyridin-3-yl]-methanol], the IC50 under setting [2] lay in the range of 10 to 30 µM.

On to `OC(c1ccc(F)c(-c2ncnc3cc(N4CCOCC4)ccc23)c1)c1nncc2sccc12` (stereo not shown) [Example 333, [4-Fluoro-3-(7-morpholin-4-yl-quinazolin-4-yl)-phenyl]thieno[2,3-d}-pyridazin-4-yl-methanol], for which, under setting [3], the IC50 is less than 0.5 µM.

With `Cn1c(C(O)c2cc(-c3ncnc4cc(N5CCOCC5)ccc34)c(F)cc2Cl)nccc1=O` (stereo not shown) [Example 368, 2-{[2-Chloro-4-fluoro-5-(7-morpholin-4-yl-quinazolin-4-yl)-phenyl]hydroxy-methyl}-3-methyl-3H-pyrimidin-4-one], under setting [4], the IC50 is 5 to 10 µM.

Turning to `CC(C)(C)Oc1nccnc1C(O)c1ccc(F)c(-c2ncnc3cc(N4CCOCC4)ccc23)c1` (stereo not shown) [Example 13, (3-tert-Butoxy-pyrazin-2-yl)-[4-fluoro-3-(7-morpholin-4-yl-quinazolin-4-yl)phenyl]-methanol], under setting [5], the IC50 was 10 to 30 µM.

For the compound `NC(=O)C(c1ccc(F)c(-c2ncnc3cc(N4CCOCC4)ccc23)c1)c1nncc2sccc12` (stereo not shown) [Example 285, 2-[4-Fluoro-3-(7-morpholin-4-yl-quinazolin-4-yl)-phenyl]-2-thieno-[2,3-d}pyridazin-4-yl-acetamide], the IC50 under setting [3] was 10 to 30 µM.

Turning to `OC(c1cc(-c2ncnc3cc(N4CCOCC4)ccc23)ccc1F)c1ncnc2ccsc12` (stereo not shown) [Example 405, [2-Fluoro-5-(7-morpholin-4-yl-quinazolin-4-yl)-phenyl]thieno[3,2-d}-pyrimidin-4-yl-methanol], the IC50 under setting [4] was less than 0.5 µM.

`NC(=O)COc1ccc(C(O)c2cc(-c3ncnc4cc(N5CCOCC5)ccc34)c(F)cc2Cl)nn1` (stereo not shown) [Example 111, 2-(6-{[2-Chloro-4-fluoro-5-(7-morpholin-4-yl-quinazolin-4-yl)-phenyl]hydroxy-methyl}pyridazin-3-yloxy)acetamide]: the IC50 under setting [1] lay in the range of 5 to 10 µM.

In the case of `OC(c1cc(-c2ncnc3cc(N4CCOCC4)ccc23)c(F)cc1F)c1ncnc2ccoc12` (stereo not shown) [Example 444, [2,4-Difluoro-5-(7-morpholin-4-yl-quinazolin-4-yl)-phenyl]furo[3,2-d}-pyrimidin-4-yl-methanol], the IC50 under setting [4] was 0.5 to 5 µM.

`[2H]C1([2H])OC([2H])([2H])C([2H])([2H])N(c2ccc3c(-c4cc(C(O)c5ccc(OC)nn5)c(Cl)cc4F)ncnc3c2)C1([2H])[2H]` (stereo not shown) [Example 244, [2-Chloro-4-fluoro-5-[7-(2,2,3,3,5,5,6,6-octadeuterio-morpholin-4-yl)quinazolin-4-yl]phenyl]-(6-methoxypyridazin-3-yl)methanol]: the IC50 (phospho-serine 2056 DNA-PK, bleomycin-treated HCT116 cells) is less than 0.5 µM.

In the case of `Cc1nccnc1[C@H](O)c1ccc(F)c(-c2ncnc3cc(N4CCOCC4)cc(F)c23)c1` [Example 248, (R)-[4-Fluoro-3-(5-fluoro-7-morpholin-4-ylquinazolin-4-yl)-phenyl]-(3-methyl-pyrazin-2-yl)-methanol], the half-maximal inhibitory concentration (IC50) under setting [3] is less than 0.5 µM.

For `COc1cnc(C(O)c2ccc(OC)c(-c3ncnc4cc(N5CCOCC5)ccc34)c2)cn1` (stereo not shown) [Example 61, [4-methoxy-3-(7-morpholin-4-yl-quinazolin-4-yl)phenyl]-(5-methoxypyrazin-2-yl)methanol], under setting [5], the IC50 fell in the range of 10 to 30 µM.

In the case of `Cn1cnc2ccnc(C(O)c3ccc(F)c(-c4ncnc5cc(N6CCOCC6)ccc45)c3)c21` (stereo not shown) [Example 461, [4-Fluoro-3-(7-morpholin-4-yl-quinazolin-4-yl)-phenyl]-(3-methyl-3H-imidazo[4,5-c]-pyridin-4-yl)methanol], the half-inhibitory concentration (IC50) under setting [4] was less than 0.5 µM.

In the case of `CNC(=O)c1ccc(C(O)c2cc(-c3ncnc4cc(N5CCOCC5)ccc34)c(F)cc2Cl)nn1` (stereo not shown) [Example 43, 6-{[2-Chloro-4-fluoro-5-(7-morpholin-4-yl-quinazolin-4-yl)phenyl]-hydroxymethyl}-pyridazine-3-carboxylic acid methylamide], the IC50 under setting [5] was in the range of 0.5 to 5 µM.

As to `COc1nccnc1C(O)c1cc(-c2ncnc3cc(N4CCOCC4)ccc23)c(F)cc1F` (stereo not shown) [Example 454], the IC50 (cellular DNA-PK phosphorylation at serine 2056, HCT116 cells) is less than 0.5 µM.

Consider `CCOc1cccnc1C(O)c1ccc(F)c(-c2ncnc3cc(N4CCOCC4)ccc23)c1` (stereo not shown) [Example 463, (3-Ethoxy-pyridin-2-yl)-[4-fluoro-3-(7-morpholin-4-yl-quinazolin-4-yl)-phenyl]methanol], for which the IC50 under setting [4] is less than 0.5 µM.

Take `OC(c1cccc(-c2ncnc3cc(N4CCOCC4)ccc23)c1)(c1nccs1)C(F)(F)F` (stereo not shown) [Example 159, 2,2,2-Trifluoro-1-[3-(7-morpholin-4-yl-quinazolin-4-yl)-phenyl]-1-thiazol-2-ylethanol]: the IC50 under setting [1] was in the range of 10 to 30 µM.

On to `OCc1csc([C@@H](O)c2cc(-c3ncnc4cc(N5CCOCC5)ccc34)c(F)cc2Cl)n1` [Example 185, (S)-[2-Chloro-4-fluoro-5-(7-morpholin-4-yl-quinazolin-4-yl)-phenyl]-(4-hydroxymethyl-thiazol-2-yl)-methanol], for which the IC50 under setting [1] fell in the range of 0.5 to 5 µM.

In the case of `N#CCCOc1ccc(C(O)c2cc(-c3ncnc4cc(N5CCOCC5)ccc34)c(F)cc2Cl)nn1` (stereo not shown) [Example 107, 3-(6-{[2-Chloro-4-fluoro-5-(7-morpholin-4-yl-quinazolin-4-yl)-phenyl]hydroxy-methyl}pyridazin-3-yl-oxy)propionitrile], the IC50 under setting [1] fell in the range of 0.5 to 5 µM.

Take `Cc1cncnc1C(O)c1cc(-c2ncnc3cc(N4CCOCC4)ccc23)ccc1F` (stereo not shown) [Example 392, [2-Fluoro-5-(7-morpholin-4-yl-quinazolin-4-yl)-phenyl]-(5-methyl-pyrimidin-4-yl)-methanol]: the IC50 under setting [4] lay within 0.5 to 5 µM.

As for `NC(=O)C(c1ccc(F)c(-c2ncnc3cc(N4CCOCC4)ccc23)c1)c1nnc(Cl)c2sccc12` (stereo not shown) [Example 291, 2-(7-Chlorothieno-[2,3-d}pyridazin-4-yl)-2-[4-fluoro-3-(7-morpholin-4-yl-quinazolin-4-yl)-phenyl]acetamide], under setting [3], the IC50 fell in the range of 5 to 10 µM.

Turning to `OCc1csc([C@H](O)c2cc(-c3ncnc4cc(N5CCOCC5)ccc34)c(F)cc2Cl)n1` [Example 186, (R)-[2-Chloro-4-fluoro-5-(7-morpholin-4-yl-quinazolin-4-yl)-phenyl]-(4-hydroxymethyl-thiazol-2-yl)-methanol], the IC50 under setting [1] lay within 5 to 10 µM.

Regarding `OC(c1cc(-c2ncnc3cc(N4CCOCC4)ccc23)c(F)cc1Cl)c1ncnc2sccc12` (stereo not shown) [Example 429, [2-Chloro-4-fluoro-5-(7-morpholin-4-yl-quinazolin-4-yl)-phenyl]thieno[2,3-d}-pyrimidin-4-yl-methanol], the IC50 under setting [4] was less than 0.5 µM.

`COc1nccnc1C(C(N)=O)c1ccc(F)c(-c2ncnc3cc(N4CCOCC4)ccc23)c1` (stereo not shown) [Example 305, 2-[4-Fluoro-3-(7-morpholin-4-yl-quinazolin-4-yl)-phenyl]-2-(3-methoxy-pyrazin-2-yl)acetamide]: the IC50 under setting [3] is 5 to 10 µM.

For the compound `Cc1cc(C(O)c2cc(-c3ncnc4cc(N5CCOCC5)ccc34)c(F)cc2Cl)n(C)c(=O)c1` (stereo not shown) [Example 339, 6-{[2-Chloro-4-fluoro-5-(7-morpholin-4-yl-quinazolin-4-yl)-phenyl]hydroxy-methyl}-1,4-dimethyl-1H-pyridin-2-one], the IC50 under setting [3] was in the range of 0.5 to 5 µM.

For `OC(c1cc(-c2ncnc3cc(N4CCOCC4)ccc23)c(F)cc1F)c1nccn2cccc12` (stereo not shown) [Example 358, [2,4-Difluoro-5-(7-morpholin-4-yl-quinazolin-4-yl)-phenyl]pyrrolo[1,2-a]-pyrazin-1-ylmethanol], under setting [3], the IC50 was less than 0.5 µM.

Regarding `OC(c1ccc(F)c(-c2ncnc3cc(N4CCOCC4)ccc23)c1)c1nccnc1OC1COC1` (stereo not shown) [Example 32, [4-fluoro-3-(7-morpholin-4-yl-quinazolin-4-yl)phenyl]-[3-(oxetan-3-yloxy)-pyrazin-2-yl]methanol], under setting [5], the IC50 lay within 5 to 10 µM.

As to `COc1ccc(C(O)c2cc(-c3ncnc4cc(N5CCOCC5)ccc34)c(F)cc2Cl)nn1` (stereo not shown) [Example 137, [2-Chloro-4-fluoro-5-(7-morpholin-4-ylquinazolin-4-yl)-phenyl]-(6-methoxy-pyridazin-3-yl)-methanol], the IC50 under setting [1] is 0.5 to 5 µM.

On to `Cc1nc(C(O)c2cnc(F)c(-c3ncnc4cc(N5CCOCC5)ncc34)c2)sc1C` (stereo not shown) [Example 203, (4,5-Dimethyl-thiazol-2-yl)-[6-fluoro-5-(7-morpholin-4-yl-pyrido[4,3-d}-pyrimidin-4-yl)-pyridin-3-yl]-methanol], for which the IC50 under setting [2] fell in the range of 10 to 30 µM.

Turning to `OC(c1ccc(OC2COC2)nn1)c1cc(-c2ncnc3cc(N4CCOCC4)ccc23)c(F)cc1Cl` (stereo not shown) [Example 100, [2-Chloro-4-fluoro-5-(7-morpholin-4-yl-quinazolin-4-yl)-phenyl]-[6-(oxetan-3-yloxy)pyridazin-3-yl]-methanol], the IC50 under setting [1] is less than 0.5 µM.

With `O=c1ccc(C(O)c2ccc(F)c(-c3ncnc4cc(N5CCOCC5)ccc34)c2)n[nH]1` (stereo not shown) [Example 367, 6-{[4-Fluoro-3-(7-morpholin-4-yl-quinazolin-4-yl)phenyl]-hydroxymethyl}-2H-pyridazin-3-one], the IC50 under setting [4] lay in the range of 0.5 to 5 µM.
